The text below walks through data of patent US20120009590A1, “DEVICE AND NON-TOXIC COMPOSITIONS AND METHODS FOR PERMEABILIZATION OF DROSOPHILA EMBRYOS” (The University of Vermont and State Agriculture College, priority 2009, published 2012).

The subject of data set [1] is Drosophila embryos. The data set can be described thus: Midgut development by blue yolk auto-fluorescence at Stage 16. The class given is in vivo, Drosophila melanogaster. The settings on record: EPS-treated 3 hr old embryos, 10 μM, 18° C., 20 hours. The procedure:
The embryo develops into a larva in 22-24 hours at 25° C. (refer to FIG. 9A). […] We investigated a variety of morphological events leading up to stage 17 for potentially easily identifiable endpoints. Through monitoring development under fluorescence time-lapse imaging we observed the highly dynamic pattern of blue fluorescence emitted from the auto-fluorescence of yolk proteins in the embryo. At preblastodem stages a relatively uniformly dispersed blue fluorescence is seen across the embryo (FIG. 11A). Between 3-6 hours of development this pattern changes drastically as the yolk proteins are pushed aside during germband elongation (refer to FIG. 9A). […] Blue fluorescence is seen to consolidate in the lumen of the gut initially as one large mass in the newly fused midgut (FIG. 11A, 12 hrs). […] The compartmentalized strong blue fluorescence in the midgut makes normally developed Stage 16/17 embryos easily discernable under fluorescence (FIG. 11A, 14 hrs).
We next tested the utility of this endpoint to examine small molecule toxicity by exposing permeabilized embryos to cycloheximide (CHX), a potent protein synthesis inhibitor and teratogen. EPS-treated 3 hr old embryos were incubated in the presence (FIG. 11 D, E) or absence (FIG. 11A,B,C) of 10 μM CHX at 18° C. for 20 hours (equivalent to 10 hours at 25° C.) and examined under blue fluorescence. […]

The subject of data set [2] is Dorsal-GFP embryos. Nature of the data set: Dorsal-GFP reporter in preblastoderm embryos. In kind it is in vivo, Drosophila melanogaster. The settings on record: EPS treated preblastoderm embryos. From the text:
We turned to the Dorsal-GFP transgenic fusion construct reporter to further examine the effects of the teratogen CHX. The Dorsal protein is the Drosophila NF-κB homolog which is central to signaling that establishes the dorsal-ventral axis in the embryo. Dorsal protein localizes to ventral cell nuclei where it acts to define the D/V axis.
Using this same Dorsal-GFP construct we see dynamic distribution of Dorsal-GFP in and out of the ventral nuclei of an EPS treated pre-blastoderm embryos (FIG. 13A, B). […] In many cases these early embryos are seen to stall in development. […] Embryos affected at slightly later stages show irregular nuclear Dorsal accumulation (FIG. 13D) as well as varied sizes in the nuclei present (FIG. 13E). It is interesting to note that these deformities occur more frequently in the anterior portion of the embryo, consistent with the gradient of dye dispersal seen in EPS treated embryos.

Data set [3] relates to Canton S embryos. The data set can be described thus: Scoring of cephalic furrow formation and germband elongation in embryos. In kind it is in vivo, Drosophila melanogaster. The procedure:
Effects of EPS and cycloheximide or other agents on embryo development were scored using contemporaneous DIC optics and fluorescent visualization. Canton S embryos were collected from a 3 hr laying and aged one additional hour at 25° C. Embryos were treated with 1:10 EPS in H2O for 30-60 seconds followed by washing and immersion in 1 mM rhodamine B dye in PBS for 5 minutes with rocking. Embryos were washed four times in PBS and immersed in PBS containing 10 μM cycloheximide on a Kiehart slide. Embryos were allowed to develop an additional 1.5 hours at ambient temperature (˜23° C.). […] Variable treatments included omission of EPS exposure or omission of cycloheximide or other toxic agent. Each condition was assayed in three independent preparations of embryos with >180 embryos scored for each treatment condition.
We next sought to determine the feasibility of using an early embryogenesis endpoint as an indicator of teratogenic effects. In separate experiments using flies carrying the GFP reporter for the Dorsal protein we determined that CHX had profound effects on the morphogenetic movements of the embryo in the first 3-5 hours of development (see FIG. 13 below). During these stages formation of the cephalic furrow and germband elongation serve as landmarks that are easily identifiable under differential interference contrast (DIC) microscopy (see FIG. 8). […]

Data set [4] concerns engrailed-GFP embryos. The settings on record: EPS-permeabilized embryos. The procedure:
Incubations of permeabilized embryos were carried out in two types of chambers. Longer-term incubations (6-48 hours) were done in a modified nitex basket (see FIG. 1). The basket-reservoir apparatus was covered with a tight fitting cap to limit evaporation and was incubated at 18° C. for continued development of the embryo. Short term incubations <3 hours were done in a slide chamber (see FIG. 2A). […] Incubations for early embryonic endpoints were done at room temperature and for later developmental endpoint (e.g. gut development and engrailed patterning) at 18° C.
Drug treatments were done by additions to the PBS solution reservoir during incubation in either the slide or basket chambers. Drugs used were: cycloheximide (Fluka 01810, MW=281.35, 50 mM stock in H2O), colchicine (Biomol Labs T118, MW=[…] in H2O), methylmercury chloride (Aldrich 442534, MW=251, 50 mM stock in DMSO), cytochalasin D (Sigma C8273, MW=507.6, 5 mM stock in DMSO) and cyclophosphamide (LKT C9609, MW=279.1, 100 mM stock in H2O).
The engrailed gene encodes a homeodomain transcription factor that is highly conserved in all metazoans. Engrailed is a segment polarity gene whose expression marks the […] boundary of each segment in the embryo. Engrailed also function in neural development to define developing brain regions and regulate growth of axons.

Data set [5] in a line: Miscibility with water. The class given is physicochemical. Particulars: without surfactant. The procedure: The presence of at least one surfactant is required to allow for the formation of a stable emulsion for sufficient time to allow for permeabilization of the embryos (i.e., at least about 10 minutes).

The structures appear in SMILES notation.

Consider `C[C@@H]1C[C@@H]([C@H](O)CC2CC(=O)NC(=O)C2)C(=O)[C@@H](C)C1` [CHX, cycloheximide], for which, in data set [1], the “gut development (blue fluorescence pattern)” value was “induced gut malformation”. In addition, in data set [2], the “pattern of nuclear divisions and Dorsal-GFP distribution” value is “gross deformities in the pattern of nuclear divisions and Dorsal distribution”. Also, in data set [3] (2.5 hr old permeabilized embryos, 10 μM, 1.5 hours), the cephalic furrow formation entry is “disruption of cephalic furrow formation”. Also, the “EPS treated embryos with abnormal formation of the cephalic furrow” value in data set [3] (CHX 10 μM, EPS treated embryos) is on record as “more than 80%”.
In the case of `C=C1[C@@H](C)[C@H]2[C@H](Cc3ccccc3)NC(=O)[C@]23[C@H](OC(C)=O)/C=C/[C@@](C)(O)C(=O)[C@@H](C)C/C=C/[C@H]3[C@@H]1O` [Cytochalasin D, cytochalasin D], the “engrailed-GFP expression pattern and embryo development” value in data set [4] was “stalling of embryo development at Stage 11 with gaps in the Engrailed band of cells in several segments”.
With `C=C(C)C1CC=C(C)CC1` [Limonene, D-Limonene], the miscibility with water entry in data set [5] is recorded as “not miscible with water”.
With `[CH3][Hg][Cl]` [MeHg, methylmercury chloride], the “engrailed-GFP expression pattern and embryo development” value in data set [4] was “stalls the embryo at Stage 11 and disrupts the regularity of engrailed banding pattern”.
For `O=P1(N(CCCl)CCCl)NCCCO1` (centres unmarked) [cyclophosphamide], the “engrailed-GFP expression pattern and embryo development” value in data set [4] was “overall shortening of the embryo and generates breaks in the bands of engrailed expressing cells”.
